# Like-named read-outs stand apart in the source and are kept apart here. Where a SMILES comes first, the peptide text is derived from it. [ ]: non-standard residue; d: D form. The star is where a group is joined. Arachidoyl = CCCCCCCCCCCCCCCCCCCC(=O)*; Palmitoyl = CCCCCCCCCCCCCCCC(=O)*; hPhe = N[C@@H](CCc1ccccc1)C(=O)O; β3hK = NCCCC[C@H](N)CC(=O)O
# Tests used:
# ZIKA protease = molecular target: T1, ZIKA protease (Zika virus, UniProt Q32ZE1); test: biochemical; conditions: for inhibition at 1 µM / inhibition at 50 µM: read-out: inhibition of ZIKV
# T1 construct: a trypsin-like serine protease domain in the N-terminal region of the flaviviral NS3 proteins
# Procedure: (§1) By catalytic activity of the protease, the cleaved substrate results in increased fluorescence that can be monitored using a BMG Labtech Fluostar OPTIMA Microtiter fluorescence plate reader (excitation wavelength of 320 nm and a monitored emission wavelength of 405 nm). Dilutions were made starting from 10 mM stock solutions in DMSO and final concentrations were measured in triplicates. The inhibitors were preincubated for 15 min with DENV protease (100 nM) in the assay buffer (50 mM Tris-HCl pH 9.0, ethylene glycol (10% v/v), and 0.0016% Brij 58). The enzymatic reaction was initiated by the addition of the FRET substrate (final concentration 50 μM) to obtain a final assay volume of 100 μL per well. The enzymatic activity was monitored for 15 min and determined as a slope of relative fluorescence units per second (RFU/s) for each concentration. The mean of the triplicates were plotted against the corresponding concentration in CDDVault to determine the IC50-values. Analogous procedures were used to determine the inhibitory potency on WNV (Kühl et al., J. Med. Chem. 2020, 63 (15): 8179-8197) and ZIKA protease (Nitsche et al., ACS Med. Chem. Lett. 2019 Feb. 14; 10 (2): 168-174). For selectivity screening of active candidates, similar biochemical assays with human serine proteases trypsin (Weigel et al., J. Med. Chem. 2015, 58 (19), 7719-7733.) and/or thrombin (Nitsche et al., J. Med. Chem. 2013, 56 (21), 8389-8403) were used.
# human Trypsin = human Trypsin (Homo sapiens, UniProt P07477); test: Selectivity screening, human serine protease trypsin; type: biochemical; conditions: read-out: inhibition of human Trypsin
# Procedure: as §1
# human Thrombin = human Thrombin (Homo sapiens, UniProt P00734); test: Selectivity screening, human serine protease thrombin; type: biochemical; conditions: read-out: inhibition of human Thrombin
# Procedure: as §1
# DENV protease = molecular target: T2, DENV protease (Dengue virus type 2, UniProt P29990); test: biochemical; conditions: read-out: inhibition of DENV
# T2 construct: The virus-encoded dengue protease comprises the amino-terminal 180 amino acids of NS3 (NS3pro) of the polyprotein
# Outline: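 DENV protease (100 nM) was pre-incubated 15 min with inhibitors in 50 mM Tris-HCl pH 9.0, 10% ethylene glycol, 0.0016% Brij 58. FRET substrate (50 μM final) started the reaction, monitored 15 min as RFU/s slope. IC50 came from triplicate means versus concentration.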
# WNV protease [1] = molecular target: T3, WNV protease (West Nile virus, UniProt P06935); test: WNV protease assay (analogous procedure); type: biochemical
# T3 construct: a trypsin-like serine protease domain in the N-terminal region of the flaviviral NS3 proteins
# Procedure: as §1
# WNV protease [2] = molecular target: T3, WNV protease; test: WNV protease assay (analogous procedure); type: biochemical; conditions: read-out: IC50 for WNNV
# T1 sequence (Q32ZE1 1499-1676): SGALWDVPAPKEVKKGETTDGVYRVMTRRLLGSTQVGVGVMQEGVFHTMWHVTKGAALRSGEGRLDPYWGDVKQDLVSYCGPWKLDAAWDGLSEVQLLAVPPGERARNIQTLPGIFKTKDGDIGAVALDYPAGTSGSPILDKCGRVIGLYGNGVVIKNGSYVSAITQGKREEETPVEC
# T1 sequence (Q32ZE1 1421-1460): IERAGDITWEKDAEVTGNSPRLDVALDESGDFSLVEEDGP
# T2 sequence (P29990 1398-1437): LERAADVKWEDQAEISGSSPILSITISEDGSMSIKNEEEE
# T2 sequence (P29990 1476-1653): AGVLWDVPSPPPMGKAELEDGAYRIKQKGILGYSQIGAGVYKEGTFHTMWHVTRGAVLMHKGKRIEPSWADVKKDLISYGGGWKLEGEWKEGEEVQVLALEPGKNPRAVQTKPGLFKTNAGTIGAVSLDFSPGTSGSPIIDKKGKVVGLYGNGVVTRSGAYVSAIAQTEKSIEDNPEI
# T3 sequence (P06935 1424-1463): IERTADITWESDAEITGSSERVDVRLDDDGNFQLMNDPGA
# T3 sequence (P06935 1502-1679): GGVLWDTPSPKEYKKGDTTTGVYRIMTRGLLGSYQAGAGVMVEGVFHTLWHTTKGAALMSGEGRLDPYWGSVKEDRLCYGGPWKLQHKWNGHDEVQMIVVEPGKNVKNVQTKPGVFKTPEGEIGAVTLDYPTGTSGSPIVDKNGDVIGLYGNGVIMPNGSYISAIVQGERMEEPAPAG
Structure (SMILES),IC50 (ZIKA protease) [µM],inhibition at 1 µM (ZIKA protease; at 1 μM) [%],inhibition at 50 µM (ZIKA protease; at 50 μM) [%],inhibition at 5 µM (human Trypsin; at 5 μM) [%],inhibition at 25 µM (human Trypsin; at 25 μM) [%],inhibition at 5 µM (human Thrombin; at 5 μM) [%],inhibition at 1 µM (DENV protease; at 1 μM) [%],inhibition at 50 µM (DENV protease) [%],inhibition at 50 µM (WNV protease [1]) [%],IC50 (WNV protease [2]) [µM],inhibition at 50 µM (ZIKA protease) [%],inhibition at 5 µM (human Trypsin) [%],inhibition at 25 µM (human Trypsin) [%],inhibition at 5 µM (human Thrombin) [%],inhibition at 1 µM (ZIKA protease) [%],inhibition at 1 µM (DENV protease) [%],"inhibition at 1 µM (WNV protease [1]; at 1 μM, read-out: inhibition of WNNV) [%]"
CCCCCCCCCCCCCCCCCCCC(=O)N[C@@H](CCCCN)C(=O)N1CCC[C@H]1C(=O)N[C@@H](C)C(=O)N[C@@H](CCCCN)C(N)=O [compound 125] (Arachidoyl-KPAK-NH2),≤ 25,≥ 10,≥ 65,< 10,< 20,< 5,≥ 20,≥ 25,≥ 25,≤ 40,–,–,–,–,–,–,–
CCCCCCCCCCCCCCCC(=O)N[C@H](CCCCN)C(=O)N[C@@H](C)C(=O)N[C@@H](C)C(=O)N[C@@H](CCCCN)C(N)=O [compound 115] (Palmitoyl-[dK]AAK-NH2),≤ 25,≥ 10,≥ 65,< 10,< 20,< 5,–,≥ 25,≥ 25,≤ 40,–,–,–,–,–,–,–
CCCCCCCCCCCCCCCC(=O)N[C@@H](CCCCN)C(=O)N1CCC[C@H]1C(=O)N[C@@H](C)C(=O)N[C@H](Cc1ccccc1)C(N)=O [compound 123] (Palmitoyl-KPA[dF]-NH2),≤ 25,≥ 10,≥ 65,< 10,< 20,< 5,–,≥ 25,≥ 25,≤ 40,–,–,–,–,–,–,–
CCCCCCCCCCCCCCCC(=O)N[C@@H](CCCCN)CN1CCC[C@H]1C(=O)N[C@@H](C)C(=O)N[C@H](Cc1c[nH]c2ccccc12)C(N)=O [compound 122],≤ 25,–,≥ 65,< 10,< 20,< 5,–,≥ 25,≥ 25,≤ 40,–,–,–,–,–,–,–
CCCCCCCCCCCCCCCC(=O)N[C@@H](CCCCN)C(=O)N1CCC[C@H]1C(=O)N[C@@H](C)C(=O)N[C@@H](CCc1ccccc1)C(=O)C(N)=O [compound 6],≤ 25,–,–,–,–,–,–,≥ 25,≥ 25,≤ 40,≥ 65,< 10,< 20,< 5,–,–,–
CCCCCCCCCCCCCCCC(=O)N[C@@H](CCCCN)C(=O)N[C@@H](C)C(=O)N[C@@H](C)C(=O)N[C@H](CCc1ccccc1)C(=O)C(N)=O [compound 5],≤ 25,–,–,–,–,–,–,≥ 25,≥ 25,≤ 40,≥ 65,< 10,< 20,< 5,–,–,–
CCCCCCCCCCCCCCCC(=O)N[C@@H](CCCCN)C(=O)N[C@@H](C)C(=O)N[C@@H](C)C(=O)N[C@@H](CCCCN)C(=O)c1ccccc1 [compound 137],≤ 25,–,–,–,–,–,–,≥ 25,≥ 25,≤ 40,≥ 65,< 10,< 20,< 5,≥ 10,≥ 20,≥ 10
CCCCCCCCCCCCCCCC(=O)N[C@@H](CCCCN)C(=O)N[C@@H](C)C(=O)N[C@@H](C)C(=O)N[C@@H](Cc1cnc[nH]1)C(N)=O [compound 168] (Palmitoyl-KAAH-NH2),≤ 25,≥ 10,≥ 65,< 10,< 20,< 5,–,≥ 25,≥ 25,≤ 40,–,–,–,–,–,–,–
CCCCCCCCCCCCCCCC(=O)N[C@@H](CCCCN)C(=O)N1CCC[C@H]1C(=O)N[C@@H](Cc1cnc[nH]1)C(=O)N[C@@H](CCc1ccccc1)C(N)=O [compound 11] (Palmitoyl-KPH[hPhe]-NH2),≤ 25,≥ 10,≥ 65,< 10,< 20,< 5,–,≥ 25,≥ 25,≤ 40,–,–,–,–,–,–,–
CCCCCCCCCCCCCCCC(=O)N[C@H](C)C(=O)N1C[C@H](Oc2ccncc2)C[C@H]1C(=O)N[C@H](C)C(=O)N[C@H](CCCCN)C(N)=O [compound 8],≤ 25,–,≥ 65,< 10,< 20,< 5,–,≥ 25,≥ 25,≤ 40,–,–,–,–,–,–,–
CCCCCCCCCCCCCCCC(=O)N[C@@H](CCCCN)CC(=O)N1CCC[C@H]1C(=O)N[C@@H](C)C(=O)N[C@@H](Cc1ccccc1)C(N)=O [compound 116] (Palmitoyl-[β3hK]PAF-NH2),≤ 25,≥ 10,≥ 65,< 10,< 20,< 5,–,≥ 25,≥ 25,≤ 40,–,–,–,–,–,–,–
CCCCCCCCCCCCCCCC(=O)N[C@@H](CCCCN)C(=O)N[C@@H](C)C(=O)N[C@@H](C)C(=O)N[C@H](Cc1c[nH]cn1)C(N)=O [compound 171] (Palmitoyl-KAA[dH]-NH2),≤ 25,–,≥ 65,< 10,< 20,< 5,–,≥ 25,≥ 25,≤ 40,–,–,–,–,–,–,–
CCCCCCCCCCCCCCCC(=O)N[C@@H](CCCCN)C(=O)N1CCC[C@H]1C(=O)N[C@@H](C)C(=O)N[C@@H](C(N)=O)c1ccc(OCc2ccccc2)cc1 [compound 129],≤ 25,–,–,–,–,–,–,≥ 25,≥ 25,≤ 40,≥ 65,< 10,< 20,< 5,≥ 10,≥ 20,–
CCCCCCCCCCCCCCCC(=O)N[C@@H](CCCCN)C(=O)N[C@@H](C)C(=O)N[C@@H](CCCCN)C(C)=O [compound 175],≤ 25,–,≥ 65,< 10,< 20,< 5,–,≥ 25,≥ 25,≤ 40,–,–,–,–,–,–,–
CCCCCCCCCCCCCCCC(=O)N[C@@H](CCCCN)CC(=O)N1CCC[C@H]1C(=O)N[C@@H](C)C(=O)N[C@@H](CCc1ccccc1)C(N)=O [compound 117] (Palmitoyl-[β3hK]PA[hPhe]-NH2),≤ 25,≥ 10,≥ 65,< 10,< 20,< 5,–,≥ 25,≥ 25,≤ 40,–,–,–,–,–,–,–
CCCCCCCCCCCCCCCC(=O)N[C@@H](CCCCN)C(=O)N[C@@H](C)C(=O)N[C@@H](C)C(=O)N[C@@H](Cc1c[nH]c2ccccc12)C(N)=O [compound 92] (Palmitoyl-KAAW-NH2),≤ 25,≥ 10,≥ 65,< 10,< 20,< 5,–,≥ 25,≥ 25,≤ 40,–,–,–,–,–,–,–
